Assay results taken from ChEMBL document CHEMBL1201862, “PubChem BioAssay data set” (2004).
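Assay format: 96-well plates, 48-hour exposure. GI50: concentration for 50% inhibition of growth.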 Calls of active or inactive are those of the source. No stated cut-off is given here; in the data, active = GI50 up to about 1.1 µM and inactive = higher.

Columns and labels:
Test in all cases: NCI tumour cell line growth inhibition, 48 h
[1] = test system: MCF7
[2] = test system: UACC-257
[3] = test system: OVCAR-4
[4] = test system: SNB-19
[5] = test system: OVCAR-3
[6] = test system: COLO 205
[7] = test system: U-251
[8] = test system: OVCAR-5
[9] = test system: A498
[10] = test system: RPMI-8226
[11] = test system: MDA-MB-435
[12] = test system: NCI-H226
[13] = test system: BT-549
[14] = test system: MOLT-4
[15] = test system: SK-MEL-5
[16] = test system: HCT-15
[17] = test system: DU-145
[18] = test system: SW-620
[19] = test system: Malme-3M
[20] = test system: EKVX
[21] = test system: NCI-H23
[22] = test system: SN12C
[23] = test system: NCI/ADR-RES
[24] = test system: A549
[25] = test system: HCC 2998
[26] = test system: SF-539
[27] = test system: UO-31
[28] = test system: CCRF-CEM
[29] = test system: TK-10
[30] = test system: CAKI-1
[31] = test system: HL-60
[32] = test system: SF-268
[33] = test system: MDA-MB-231
[34] = test system: K562
[35] = test system: KM12
[36] = test system: HOP-62
[37] = test system: OVCAR-8
[38] = test system: HCT-116
[39] = test system: SF-295
[40] = test system: 786-0
[41] = test system: ACHN
[42] = test system: SR
[43] = test system: IGROV-1
[44] = test system: SK-MEL-28
[45] = test system: RXF 393
[46] = test system: HT-29
[47] = test system: NCI-H522
[48] = test system: PC-3
[49] = test system: NCI-H460
[50] = test system: SNB-75
[51] = test system: HOP-92
[52] = test system: LOX IMVI
[53] = test system: Hs-578T
[54] = test system: M14
[55] = test system: SK-MEL-2

In the case of `Sc1ncc2[nH]nnc2n1`, the GI50 [1] is reported as > 100 µM (inactive), the GI50 [2] is reported as > 100 µM (inactive) and the GI50 [3] is reported as > 100 µM (inactive). The GI50 [4] was > 100 µM (inactive), the GI50 [5] was > 100 µM (inactive) and the GI50 [6] was > 100 µM (inactive). For the same molecule, the GI50 [7] was > 100 µM (inactive), the GI50 [8] was > 100 µM (inactive) and the GI50 [9] was > 100 µM (inactive). The GI50 [10] was > 100 µM (inactive), the GI50 [11] was > 100 µM (inactive) and the GI50 [12] was > 100 µM (inactive). The GI50 [13] was > 100 µM (inactive), the GI50 [14] was > 100 µM (inactive) and the GI50 [15] was > 100 µM (inactive). The GI50 [16] was over 100 µM, the GI50 [17] was > 100 µM (inactive) and the GI50 [18] was > 100 µM (inactive). For the same molecule, the GI50 [19] was > 100 µM (inactive), the GI50 [20] was > 100 µM (inactive) and the GI50 [21] was > 100 µM (inactive). The GI50 [22] was > 100 µM (inactive), the GI50 [23] was > 100 µM (inactive) and the GI50 [24] was > 100 µM (inactive). The GI50 [25] was > 100 µM (inactive), the GI50 [26] was > 100 µM (inactive) and the GI50 [27] was > 100 µM (inactive). For the same molecule, the GI50 [28] was > 100 µM (inactive), the GI50 [29] was > 100 µM (inactive) and the GI50 [30] was > 100 µM (inactive). The GI50 [31] was > 100 µM (inactive), the GI50 [32] was > 100 µM (inactive) and the GI50 [33] was > 100 µM (inactive). The GI50 [34] was > 100 µM (inactive), the GI50 [35] was > 100 µM (inactive) and the GI50 [36] was > 100 µM (inactive). For the same molecule, the GI50 [37] was > 100 µM (inactive), the GI50 [38] was > 100 µM (inactive) and the GI50 [39] was > 100 µM (inactive). The GI50 [40] was > 100 µM (inactive), the GI50 [41] was > 100 µM (inactive) and the GI50 [42] was > 100 µM (inactive). For the same molecule, the GI50 [43] was > 100 µM (inactive), the GI50 [44] was > 100 µM (inactive) and the GI50 [45] was > 100 µM (inactive). The GI50 [46] was > 100 µM (inactive), the GI50 [47] was > 100 µM (inactive) and the GI50 [48] was > 100 µM (inactive). For the same molecule, the GI50 [49] was > 100 µM (inactive), the GI50 [50] was > 100 µM (inactive) and the GI50 [51] was > 100 µM (inactive). For the same molecule, the GI50 [52] was > 100 µM (inactive) and the GI50 [53] was > 100 µM (inactive).
With `Cc1cc(OC(=O)NCn2cc(-c3ccccc3)nn2)ccc1Cl` the GI50 [1] was > 100 µM (inactive), the GI50 [2] was > 100 µM (inactive) and the GI50 [3] was 78.7 µM (inactive). For the same molecule, the GI50 [4] was 91.2 µM (inactive), the GI50 [6] was > 100 µM (inactive) and the GI50 [7] was > 100 µM (inactive). The GI50 [8] was > 100 µM (inactive), the GI50 [10] was 78.2 µM (inactive) and the GI50 [12] was > 100 µM (inactive). For the same molecule, the GI50 [13] was 68.9 µM (inactive), the GI50 [14] was 28.3 µM (inactive) and the GI50 [15] was > 100 µM (inactive). The GI50 [16] was 97.9 µM, the GI50 [17] was 68.7 µM (inactive) and the GI50 [18] was > 100 µM (inactive). The GI50 [19] was 88.1 µM (inactive), the GI50 [20] was > 100 µM (inactive) and the GI50 [21] was 96.6 µM (inactive). For the same molecule, the GI50 [22] was > 100 µM (inactive), the GI50 [23] was 83.4 µM (inactive) and the GI50 [24] was 95.5 µM (inactive). The GI50 [54] was 67.3 µM (inactive), the GI50 [25] was 16.3 µM (inactive) and the GI50 [26] was 54.2 µM (inactive). For the same molecule, the GI50 [28] was 72.8 µM (inactive), the GI50 [29] was > 100 µM (inactive) and the GI50 [30] was 83.2 µM (inactive). For the same molecule, the GI50 [31] was 44.3 µM (inactive), the GI50 [32] was 48.4 µM (inactive) and the GI50 [33] was > 100 µM (inactive). The GI50 [34] was 76.4 µM (inactive), the GI50 [35] was > 100 µM (inactive) and the GI50 [36] was 69.3 µM (inactive). For the same molecule, the GI50 [55] was 48.3 µM (inactive), the GI50 [37] was 92.7 µM (inactive) and the GI50 [38] was 85.7 µM (inactive). For the same molecule, the GI50 [39] was > 100 µM (inactive), the GI50 [40] was > 100 µM (inactive) and the GI50 [41] was > 100 µM (inactive). The GI50 [42] was 83 µM (inactive), the GI50 [43] was 37.7 µM (inactive) and the GI50 [44] was > 100 µM (inactive). For the same molecule, the GI50 [46] was 73.5 µM (inactive), the GI50 [47] was 54.2 µM (inactive) and the GI50 [48] was > 100 µM (inactive). For the same molecule, the GI50 [49] was 67.6 µM (inactive), the GI50 [50] was 29.8 µM (inactive) and the GI50 [51] was 67.1 µM (inactive). The GI50 [52] was 66.8 µM (inactive).
